Results on three molecules are retold here after ChEMBL document CHEMBL1201862, “PubChem BioAssay data set” (2004).

As a reminder, the Ki is a measure of affinity in units of concentration, obtained from inhibition or displacement. Usually EC50 stands for the concentration at which the effect is half-maximal. What is called IC50 is the midpoint of a concentration-inhibition curve.

Calls of active or inactive are those of the source.

The target of test [1] is Rho-associated protein kinase 1 (Homo sapiens, UniProt Q13464). Format: functional.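 Note: measured within a broad kinome-wide panel profiling many kinases.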
Test [2] has as its target Serine/threonine-protein kinase 3 (Homo sapiens, UniProt Q13188). The test is classed as functional.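 Note: measured as one member of a kinome-wide kinase panel.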
For test [3], the target named is Vascular endothelial growth factor receptor 2 (Homo sapiens, UniProt P35968). The test is classed as functional.
Test [4] concerns the target RAC-alpha serine/threonine-protein kinase (Homo sapiens, UniProt P31749). The test is classed as functional.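 Note: AKT1 affinity measured as one member of a kinome-wide kinase profiling panel.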
For test [5], the target named is Protein kinase C zeta type (Homo sapiens, UniProt Q05513). The test is classed as functional.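 Note: measured as one member of a broad kinase profiling panel.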
Test [6] addresses Vascular endothelial growth factor receptor 3 (Homo sapiens, UniProt P35916). Format: functional.
The target in test [7] is Serine/threonine-protein kinase PAK 1 (Homo sapiens, UniProt Q13153). The test is classed as functional.
Test [8] has as its target Cyclin-dependent kinase 1 (Homo sapiens, UniProt P06493). Format: functional.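 Note: Kinome-wide panel profiling, with the target listed as panel member CDC2.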
In test [9] the target is Casein kinase II subunit alpha (Homo sapiens, UniProt P68400). Format: functional.
The target of test [10] is Dual specificity tyrosine-phosphorylation-regulated kinase 1A (Homo sapiens, UniProt Q13627). Format: functional.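 Note: measured against DYRK1A as one member of a broad kinome profiling panel.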
The target in test [11] is Mitogen-activated protein kinase 1 (Homo sapiens, UniProt P28482). The test is classed as functional.
Test [12] addresses Serine/threonine-protein kinase PLK1 (Homo sapiens, UniProt P53350). The test is classed as functional.
Test [13] has as its target Serine/threonine-protein kinase Chk2 (Homo sapiens, UniProt O96017). The test is classed as functional.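 Note: CHEK2 entry within a kinome-wide screening panel.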
Test [14] addresses Serine/threonine-protein kinase Chk1 (Homo sapiens, UniProt O14757). Format: functional.
The target of test [15] is Serine/threonine-protein kinase PAK 4 (Homo sapiens, UniProt O96013). The test is classed as functional.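 Note: value obtained within a kinome profiling panel in which PAK4 was one of the panel members.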
Test [16] deals with Serine/threonine-protein kinase MRCK alpha (Homo sapiens, UniProt Q5VT25). Format: functional.
For test [17], the target named is Mitogen-activated protein kinase 8 (Homo sapiens, UniProt P45983). The test is classed as functional.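 Note: value comes from one member of a kinome-wide kinase profiling panel.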
In test [18] the target is Inhibitor of nuclear factor kappa-B kinase subunit alpha (Homo sapiens, UniProt O15111). The test is classed as functional.
Test [19] concerns the target Mitogen-activated protein kinase 9 (Homo sapiens, UniProt P45984). The test is classed as functional.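 Note: value from a kinome panel profiling assay, MAPK9 panel entry.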
The target of test [20] is MAP kinase-activated protein kinase 2 (Homo sapiens, UniProt P49137). The test is classed as functional.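 Note: measured as one member of a kinome-wide kinase panel.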
Test [21] has as its target Casein kinase I isoform delta (Homo sapiens, UniProt P48730). The test is classed as functional.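 Note: measured as one member (CSNK1D) of a kinome panel.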
Test [22] concerns the target Tyrosine-protein kinase Blk (Homo sapiens, UniProt P51451). The test is classed as functional.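 Note: obtained as one member of a kinome-wide kinase assay panel.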
The target of test [23] is Ribosomal protein S6 kinase alpha-3 (Homo sapiens, UniProt P51812). The test is classed as functional.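 Note: measured within a kinome-wide profiling panel.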
The target in test [24] is Protein kinase C gamma type (Homo sapiens, UniProt P05129). Format: functional.
The target of test [25] is Death-associated protein kinase 3 (Homo sapiens, UniProt O43293). Format: functional.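 Note: measured as one member of a kinome-wide profiling panel.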
In test [26] the target is Serine/threonine-protein kinase PLK4 (Homo sapiens, UniProt O00444). Format: functional.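 Note: PLK4 measured as one member of a kinome-wide kinase profiling panel.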
Test [27] addresses cAMP-dependent protein kinase catalytic subunit alpha (Homo sapiens, UniProt P17612). The test is classed as functional.
Test [28] deals with Calcium/calmodulin-dependent protein kinase type 1 (Homo sapiens, UniProt Q14012). The test is classed as functional.
In test [29] the target is Inhibitor of nuclear factor kappa-B kinase subunit beta (Homo sapiens, UniProt O14920). Format: functional.
Test [30] has as its target Ribosomal protein S6 kinase beta-1 (Homo sapiens, UniProt P23443). The test is classed as functional.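 Note: measured as one member of a kinome-wide profiling panel.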
For test [31], the target named is RAC-gamma serine/threonine-protein kinase (Homo sapiens, UniProt Q9Y243). The test is classed as functional.
The target in test [32] is MAP kinase-activated protein kinase 3 (Homo sapiens, UniProt Q16644). Format: functional.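 Note: value comes from a kinome-wide profiling panel in which MAPKAPK3 is one of the panel members.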
Test [33] addresses Tyrosine-protein kinase JAK2 (Homo sapiens, UniProt O60674). Format: functional.
Test [34] deals with Glycogen synthase kinase-3 beta (Homo sapiens, UniProt P49841). Format: functional.
The target of test [35] is Mitogen-activated protein kinase 12 (Homo sapiens, UniProt P53778). Format: functional.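 Note: measured as one member of a kinome-wide kinase profiling panel.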
The target in test [36] is Glycogen synthase kinase-3 alpha (Homo sapiens, UniProt P49840). The test is classed as functional.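 Note: GSK3A result taken from a broad kinome-wide kinase panel.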
For test [37], the target named is Tyrosine-protein kinase JAK3 (Homo sapiens, UniProt P52333). The test is classed as functional.
Test [38] deals with Fibroblast growth factor receptor 1 (Homo sapiens, UniProt P11362). Format: functional.
The target of test [39] is Proto-oncogene tyrosine-protein kinase Src (Homo sapiens, UniProt P12931). The test is classed as functional.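 Note: SRC entry within a kinome-wide kinase profiling panel.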
The target of test [40] is Cyclin-dependent kinase 5 (Homo sapiens, UniProt Q00535). The test is classed as functional.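 Note: CDK5 measured as one member of a kinase profiling panel.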
For test [41], the target named is BDNF/NT-3 growth factors receptor (Homo sapiens, UniProt Q16620). The test is classed as functional.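 Note: NTRK2 measured as one member of a broad kinome-wide kinase profiling panel.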
Test [42] has as its target Serine/threonine-protein kinase pim-1 (Homo sapiens, UniProt P11309). The test is classed as functional.
The target of test [43] is Receptor tyrosine-protein kinase erbB-4 (Homo sapiens, UniProt Q15303). Format: functional.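 Note: ERBB4 member of a kinome-wide kinase profiling panel.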
Test [44] addresses Aurora kinase B (Homo sapiens, UniProt Q96GD4). The test is classed as functional.
In test [45] the target is Serine/threonine-protein kinase PLK3 (Homo sapiens, UniProt Q9H4B4). Format: functional.
In test [46] the target is LIM domain kinase 1 (Homo sapiens, UniProt P53667). The test is described as follows: Navigating the Kinome. Panel member name: LIMK1. Format: functional.
Test [47] has as its target Protein kinase C delta type (Homo sapiens, UniProt Q05655). The test is classed as functional.
The target of test [48] is Aurora kinase A (Homo sapiens, UniProt O14965). The test is classed as functional.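 Note: value from the Navigating the Kinome kinase panel profiling, panel entry STK6.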
The target of test [49] is 5'-AMP-activated protein kinase catalytic subunit alpha-1 (Homo sapiens, UniProt Q13131). The test is classed as functional.
Test [50] addresses Serine/threonine-protein kinase Nek2 (Homo sapiens, UniProt P51955). The test is classed as functional.
The target of test [51] is MAP/microtubule affinity-regulating kinase 3 (Homo sapiens, UniProt P27448). The test is classed as functional.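 Note: MARK3 affinity measured as one member of a kinome panel.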
The target in test [52] is 3-phosphoinositide-dependent protein kinase 1 (Homo sapiens, UniProt O15530). The test is classed as functional.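 Note: value comes from the Navigating the Kinome panel, PDPK1 member.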
For test [53], the target named is Interleukin-1 receptor-associated kinase 4 (Homo sapiens, UniProt Q9NWZ3). Format: functional.
The target in test [54] is Insulin receptor (Homo sapiens, UniProt P06213). The test is classed as functional.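 Note: insulin receptor kinase tested as one member of a kinome-wide kinase panel.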
Test [55] in a line: cytotoxicity toward NIH3T3 fibroblasts, dose response, counter-screen, cell-based, ATP luminescence, mouse fibroblasts (AID 2010).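 Note: cells exposed to compound for about 90 hours before reading.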 The test is classed as functional. Background: Counterscreens check selectivity or assay interference.
A short description of test [56]: inhibitors of intracellular T. cruzi replication, confirmation, NIH3T3 host cells, beta-gal luminescence (AID 2044).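 Note: intracellular parasites grown in NIH/3T3 mouse fibroblasts as host cells; luminescent beta-galactosidase reporter signal from transgenic T. cruzi replicating inside host cells; inhibitors lower the luminescence signal.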 The test is classed as functional, cell-based.
Test [57] deals with T1, High affinity choline transporter 1 (Homo sapiens, UniProt Q9GZV3).
T1 sequence (Q9GZV3 whole entry): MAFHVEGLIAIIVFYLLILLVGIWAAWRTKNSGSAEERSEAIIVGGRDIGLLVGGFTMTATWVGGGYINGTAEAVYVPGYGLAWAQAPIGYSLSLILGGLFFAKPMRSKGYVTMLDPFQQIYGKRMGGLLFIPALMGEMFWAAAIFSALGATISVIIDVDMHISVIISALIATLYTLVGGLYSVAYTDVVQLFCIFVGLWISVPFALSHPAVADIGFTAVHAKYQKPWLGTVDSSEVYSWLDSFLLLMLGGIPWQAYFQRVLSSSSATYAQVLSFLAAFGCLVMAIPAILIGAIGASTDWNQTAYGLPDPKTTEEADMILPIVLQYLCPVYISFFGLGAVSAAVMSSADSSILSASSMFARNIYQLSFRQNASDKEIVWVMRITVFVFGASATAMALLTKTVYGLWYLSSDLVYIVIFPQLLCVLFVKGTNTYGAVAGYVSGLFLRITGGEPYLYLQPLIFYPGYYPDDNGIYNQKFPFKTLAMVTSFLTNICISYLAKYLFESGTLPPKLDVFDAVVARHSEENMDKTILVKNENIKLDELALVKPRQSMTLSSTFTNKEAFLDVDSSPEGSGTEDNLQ
The test is described as follows: CHT inhibitors, dose response, cell-based, 5-point CRC, membrane potential dye (AID 504840). The test is classed as functional.

For test [58], the target named is T1, High affinity choline transporter 1. The test is described as follows: CHT inhibitors, dose response, cell-based, 10-point CRC, membrane potential dye (AID 588401).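 Note: membrane potential dye fluorescence of choline-evoked depolarization via CHT.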 The test is classed as functional.
Test [59] deals with Melanin-concentrating hormone receptor 1 (Homo sapiens, UniProt Q99705). The test can be described thus: Late-stage fluorescence-based counterscreen for antagonists of the G-protein coupled receptor 7 (GPR7): cell-based dose response assay to identify antagonists of the melanin-concentrating hormone receptor 1 (MCHR1) Set 6. Format: functional.
Test [60] has as its target Neuropeptides B/W receptor type 1 (Homo sapiens, UniProt P48145). The test can be described thus: GPR7 antagonist potency, late-stage follow-up, cell-based, fluorescence, dose response, set 6 (AID 588583). The test is classed as functional.

Chain of MAP kinase-activated protein kinase 3 (Q16644 whole entry): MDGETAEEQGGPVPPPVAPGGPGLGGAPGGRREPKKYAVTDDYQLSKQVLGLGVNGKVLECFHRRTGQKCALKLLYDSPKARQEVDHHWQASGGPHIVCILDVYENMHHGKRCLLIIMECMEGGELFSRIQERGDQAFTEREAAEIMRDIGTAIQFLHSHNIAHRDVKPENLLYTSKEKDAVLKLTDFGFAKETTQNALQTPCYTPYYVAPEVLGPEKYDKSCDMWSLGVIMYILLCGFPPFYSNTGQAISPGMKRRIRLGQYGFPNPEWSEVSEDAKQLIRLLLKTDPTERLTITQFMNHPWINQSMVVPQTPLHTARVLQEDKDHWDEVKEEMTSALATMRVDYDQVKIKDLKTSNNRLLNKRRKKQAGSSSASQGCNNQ
Chain of Inhibitor of nuclear factor kappa-B kinase subunit alpha (O15111 whole entry): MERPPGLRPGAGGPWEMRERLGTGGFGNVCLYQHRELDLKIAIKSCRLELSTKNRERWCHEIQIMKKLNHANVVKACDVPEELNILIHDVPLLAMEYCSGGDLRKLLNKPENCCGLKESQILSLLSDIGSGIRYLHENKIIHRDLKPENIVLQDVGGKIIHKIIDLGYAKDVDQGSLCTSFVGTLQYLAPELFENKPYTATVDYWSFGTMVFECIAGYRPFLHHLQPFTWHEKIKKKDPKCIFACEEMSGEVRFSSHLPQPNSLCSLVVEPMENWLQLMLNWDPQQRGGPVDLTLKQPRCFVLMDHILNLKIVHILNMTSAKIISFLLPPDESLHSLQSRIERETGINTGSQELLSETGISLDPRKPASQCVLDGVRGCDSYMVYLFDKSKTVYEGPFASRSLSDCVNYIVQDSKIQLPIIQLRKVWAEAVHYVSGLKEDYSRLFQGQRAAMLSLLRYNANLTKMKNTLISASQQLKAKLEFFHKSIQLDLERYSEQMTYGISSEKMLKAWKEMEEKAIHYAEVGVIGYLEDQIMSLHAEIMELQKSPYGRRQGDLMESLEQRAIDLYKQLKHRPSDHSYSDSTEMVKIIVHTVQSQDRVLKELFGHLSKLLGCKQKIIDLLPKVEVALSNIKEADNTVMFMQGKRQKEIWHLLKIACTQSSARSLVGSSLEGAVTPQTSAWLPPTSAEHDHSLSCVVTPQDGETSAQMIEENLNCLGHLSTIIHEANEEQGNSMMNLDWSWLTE
Chain of Inhibitor of nuclear factor kappa-B kinase subunit beta (O14920 whole entry): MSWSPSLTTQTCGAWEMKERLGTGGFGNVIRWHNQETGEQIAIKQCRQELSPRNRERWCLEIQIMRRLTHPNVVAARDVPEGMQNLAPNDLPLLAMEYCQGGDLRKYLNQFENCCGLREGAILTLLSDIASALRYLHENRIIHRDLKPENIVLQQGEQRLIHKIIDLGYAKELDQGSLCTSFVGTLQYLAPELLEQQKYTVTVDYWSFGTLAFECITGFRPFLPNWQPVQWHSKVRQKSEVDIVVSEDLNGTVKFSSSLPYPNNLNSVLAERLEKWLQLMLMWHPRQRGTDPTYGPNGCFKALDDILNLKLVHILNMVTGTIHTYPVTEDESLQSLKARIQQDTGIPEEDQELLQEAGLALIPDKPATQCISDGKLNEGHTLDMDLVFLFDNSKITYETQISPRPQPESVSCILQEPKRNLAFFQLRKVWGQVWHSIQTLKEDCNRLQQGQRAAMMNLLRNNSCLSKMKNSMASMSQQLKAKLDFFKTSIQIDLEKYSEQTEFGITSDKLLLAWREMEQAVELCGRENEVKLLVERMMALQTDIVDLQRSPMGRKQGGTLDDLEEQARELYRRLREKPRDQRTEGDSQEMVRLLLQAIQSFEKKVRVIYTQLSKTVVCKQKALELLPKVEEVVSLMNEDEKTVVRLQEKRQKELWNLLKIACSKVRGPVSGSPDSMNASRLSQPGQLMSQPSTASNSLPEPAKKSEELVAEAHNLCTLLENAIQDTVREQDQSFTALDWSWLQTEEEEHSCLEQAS
Chain of Serine/threonine-protein kinase 3 (Q13188 whole entry): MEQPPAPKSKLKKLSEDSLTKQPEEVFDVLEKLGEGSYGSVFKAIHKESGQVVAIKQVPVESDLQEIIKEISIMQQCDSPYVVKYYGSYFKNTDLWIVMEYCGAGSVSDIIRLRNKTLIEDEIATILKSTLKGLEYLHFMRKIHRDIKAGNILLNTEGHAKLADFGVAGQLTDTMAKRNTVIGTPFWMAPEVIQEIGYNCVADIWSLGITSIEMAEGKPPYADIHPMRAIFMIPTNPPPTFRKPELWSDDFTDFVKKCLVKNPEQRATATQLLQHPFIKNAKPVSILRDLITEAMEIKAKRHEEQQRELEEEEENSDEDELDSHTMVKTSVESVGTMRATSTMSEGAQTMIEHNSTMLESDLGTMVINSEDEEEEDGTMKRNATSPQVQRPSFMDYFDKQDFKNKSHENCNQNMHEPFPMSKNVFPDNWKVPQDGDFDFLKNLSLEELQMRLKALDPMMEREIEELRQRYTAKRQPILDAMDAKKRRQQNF
Chain of Serine/threonine-protein kinase pim-1 (P11309 whole entry): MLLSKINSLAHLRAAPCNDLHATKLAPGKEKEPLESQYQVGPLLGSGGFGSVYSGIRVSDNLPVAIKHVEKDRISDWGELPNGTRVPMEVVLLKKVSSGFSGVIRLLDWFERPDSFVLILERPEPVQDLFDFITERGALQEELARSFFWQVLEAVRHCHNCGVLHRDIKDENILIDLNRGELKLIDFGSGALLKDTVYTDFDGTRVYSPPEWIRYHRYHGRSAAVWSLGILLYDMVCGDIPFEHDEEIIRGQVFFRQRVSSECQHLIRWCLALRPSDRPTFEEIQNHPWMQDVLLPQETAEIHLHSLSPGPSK
Chain of Interleukin-1 receptor-associated kinase 4 (Q9NWZ3 whole entry): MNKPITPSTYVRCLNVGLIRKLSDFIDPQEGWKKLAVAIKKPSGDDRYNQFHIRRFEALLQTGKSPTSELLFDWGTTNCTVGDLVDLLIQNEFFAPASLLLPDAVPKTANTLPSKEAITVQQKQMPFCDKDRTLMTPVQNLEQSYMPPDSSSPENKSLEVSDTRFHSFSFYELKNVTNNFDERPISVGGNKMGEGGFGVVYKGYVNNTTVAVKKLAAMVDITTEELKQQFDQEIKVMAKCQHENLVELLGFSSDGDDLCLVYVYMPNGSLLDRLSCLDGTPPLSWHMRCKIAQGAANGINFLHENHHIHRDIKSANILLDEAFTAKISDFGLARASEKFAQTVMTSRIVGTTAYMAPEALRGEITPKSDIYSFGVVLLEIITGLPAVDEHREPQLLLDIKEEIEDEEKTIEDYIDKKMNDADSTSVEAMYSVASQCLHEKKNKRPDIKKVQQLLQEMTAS
Chain of Neuropeptides B/W receptor type 1 (P48145 whole entry): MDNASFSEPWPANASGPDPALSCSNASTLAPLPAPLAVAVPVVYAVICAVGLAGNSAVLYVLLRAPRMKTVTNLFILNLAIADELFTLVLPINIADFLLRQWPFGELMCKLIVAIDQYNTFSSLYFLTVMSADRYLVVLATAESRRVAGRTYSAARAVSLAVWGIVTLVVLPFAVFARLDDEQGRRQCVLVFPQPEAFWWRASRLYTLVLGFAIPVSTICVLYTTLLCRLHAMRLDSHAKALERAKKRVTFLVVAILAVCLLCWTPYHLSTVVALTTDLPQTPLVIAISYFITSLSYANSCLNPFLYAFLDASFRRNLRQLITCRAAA
Chain of Melanin-concentrating hormone receptor 1 (Q99705 whole entry): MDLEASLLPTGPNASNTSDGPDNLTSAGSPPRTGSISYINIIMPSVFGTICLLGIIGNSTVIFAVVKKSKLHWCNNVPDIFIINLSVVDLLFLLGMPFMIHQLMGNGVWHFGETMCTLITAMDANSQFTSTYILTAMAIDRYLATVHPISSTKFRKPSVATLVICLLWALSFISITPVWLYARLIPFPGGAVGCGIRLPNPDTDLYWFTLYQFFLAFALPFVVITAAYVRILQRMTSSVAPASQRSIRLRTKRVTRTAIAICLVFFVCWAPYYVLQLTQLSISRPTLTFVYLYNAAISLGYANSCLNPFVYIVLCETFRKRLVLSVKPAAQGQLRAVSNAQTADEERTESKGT
Chain of Aurora kinase B (Q96GD4 whole entry): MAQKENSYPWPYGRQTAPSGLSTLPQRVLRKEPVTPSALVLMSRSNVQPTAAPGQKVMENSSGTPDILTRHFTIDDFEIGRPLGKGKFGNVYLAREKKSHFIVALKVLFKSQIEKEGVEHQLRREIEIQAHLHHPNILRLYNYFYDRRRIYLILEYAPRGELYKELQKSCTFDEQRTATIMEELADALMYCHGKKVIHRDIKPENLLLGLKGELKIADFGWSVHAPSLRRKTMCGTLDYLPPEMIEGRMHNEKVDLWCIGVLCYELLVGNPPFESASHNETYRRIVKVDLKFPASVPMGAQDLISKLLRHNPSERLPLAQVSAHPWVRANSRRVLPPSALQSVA
Chain of Cyclin-dependent kinase 5 (Q00535 whole entry): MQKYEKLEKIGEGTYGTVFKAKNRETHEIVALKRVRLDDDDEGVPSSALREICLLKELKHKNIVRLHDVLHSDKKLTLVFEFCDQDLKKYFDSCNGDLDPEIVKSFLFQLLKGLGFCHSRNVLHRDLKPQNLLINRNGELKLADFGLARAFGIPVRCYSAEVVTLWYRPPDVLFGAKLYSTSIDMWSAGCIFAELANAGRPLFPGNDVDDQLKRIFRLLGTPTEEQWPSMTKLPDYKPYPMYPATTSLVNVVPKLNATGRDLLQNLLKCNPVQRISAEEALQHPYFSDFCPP
Chain of Mitogen-activated protein kinase 1 (P28482 whole entry): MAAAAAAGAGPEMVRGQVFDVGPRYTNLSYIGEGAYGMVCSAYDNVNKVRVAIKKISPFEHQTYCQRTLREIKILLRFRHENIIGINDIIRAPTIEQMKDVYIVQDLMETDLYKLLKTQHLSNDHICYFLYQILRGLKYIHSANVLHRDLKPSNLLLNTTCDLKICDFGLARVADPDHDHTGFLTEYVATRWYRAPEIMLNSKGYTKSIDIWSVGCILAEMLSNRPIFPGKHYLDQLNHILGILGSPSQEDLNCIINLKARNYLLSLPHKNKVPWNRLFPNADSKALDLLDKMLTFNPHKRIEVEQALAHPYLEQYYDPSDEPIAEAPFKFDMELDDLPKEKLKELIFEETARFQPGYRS

As to `CCCCCCCCCCCCOc1ccc(NC(=N)N)cc1NC(=N)N` [LAUROGUADINE], the Ki was 2.51 µM (active) in [1]; 3.98 µM (active) in [2]; > 7.94 µM (inactive) in test [3]; 3.98 µM (active) in test [4]; 1.26 µM (active) in [5]; > 6.31 µM (inactive) in test [6]. In addition, the inhibition constant (Ki) was 1.26 µM (active) in test [7]; 3.98 µM (active) in test [8]; > 6.31 µM (inactive) in test [9]; > 6.31 µM (inactive) in test [10]; > 7.94 µM (inactive) in [11]; > 7.94 µM (inactive) in [12]. For the same molecule, the Ki was > 10 µM (inactive) in test [13]; > 7.94 µM (inactive) in test [14]; > 5.01 µM (inactive) in test [15]; 2.51 µM (active) in test [16]; > 3.16 µM (inactive) in test [17]; 1.26 µM (active) in test [18]. For the same molecule, the Ki is > 3.98 µM (inactive) in test [19]; 3.98 µM (active) in [20]; > 7.94 µM (inactive) in [21]; 1 µM (active) in test [22]; 3.98 µM (active) in test [23]; 2.51 µM (active) in test [24]. Moreover, the Ki in test [25] was 316 nM (active); in test [26] it was > 3.98 µM (inactive); in test [27], > 7.94 µM (inactive); in [28], 3.98 µM (active); in [29], > 3.16 µM (inactive); in [30] it was 1.26 µM (active). The Ki in [31] is > 10 µM (inactive); in test [32], 1.58 µM (active); in [33] it was 1 µM (active); in [34] it was > 6.31 µM (inactive); in test [35], > 6.31 µM (inactive); in test [36], > 7.94 µM (inactive). The Ki was 794 nM (active) in test [37]; > 5.01 µM (inactive) in [38]; > 5.01 µM (inactive) in test [39]; > 10 µM (inactive) in test [40]; 2 µM (active) in [41]; 1.26 µM (active) in [42]. The inhibition constant Ki in test [43] was 1.58 µM (active); in [44], > 6.31 µM (inactive); in [45], > 7.94 µM (inactive); in test [46], 2 µM (active); in [47], 631 nM (active); in test [48], > 6.31 µM (inactive). Also, the Ki is > 10 µM (inactive) in test [49]; > 10 µM (inactive) in test [50]; > 6.31 µM (inactive) in test [51]; > 3.98 µM (inactive) in test [52]; 3.98 µM (active) in [53]; > 5.01 µM (inactive) in test [54].

`CCOCCCN(C)C1CCN(C(=O)c2oc3ccccc3c2NC(=O)c2ccc(F)cc2)CC1`: the EC50 in test [55] is > 60 µM (not active); in test [56], 267 nM (active). Besides, the concentration for half-maximal inhibition (IC50) in test [57] was 6.85 µM (active); in [58], 6.69 µM (active).

Take `Cc1ccccc1C(C#N)c1c(Cl)cnn(Cc2cccc3ccccc23)c1=O` (stereo not given): the half-inhibitory concentration (IC50) in test [59] and in test [60] was 821 nM (active) throughout.
